This test deals with HT29 cells. As to the kind of experiment: Inhibition of cell necrosis (CCK8 method), induced programmed necrosis of HT29 cells. The format is cell-based. Particulars: Homo sapiens, HT-29; rescue from necrosis induced by TNF-α 20 ng/mL, AT-406 1 μM, Z-VAD-FMK 20 μM; 16-20 hours; CCK-8, OD 450 nm. The gist of the method: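 HT29 cells in McCOY's 5A with 10% FBS were pre-treated for 30 min with compound (9 fourfold steps, 25000 to 0.38 nM final, 0.25% DMSO). Necrosis was then induced with TNF-α 20 ng/mL, AT-406 1 μM and Z-VAD-FMK 20 μM for 16-20 h. Viability was read by CCK-8 OD450, normalized between uninduced and induced wells, and IC50 was curve-fitted.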

One may read the IC50 as the point on the concentration scale where inhibition reaches its midpoint. Low readings indicate inhibition by little substance, high ones a need for much substance. In turn, `Cc1ccc(OCCOC(C)(C)C)cc1-c1ccnc(NC(=O)c2nnc(CC3CCCCC3)[nH]2)c1` [Example 77, N-(4-(5-(2-(tert-butoxy)ethoxy)-2-methylphenyl)pyridin-2-yl)-5-(cyclohexylmethyl)-4H-1,2,4-triazole-3-carboxamide] came in with an IC50 of at most 100 nM.
`C=Cc1ccc(OCCOC(C)(C)C)cc1-c1ccnc(NC(=O)c2nnc(Cc3ccccc3)[nH]2)c1` [Example 78, 5-benzyl-N-(4-(5-(2-(tert-butoxy)ethoxy)-2-vinylphenyl)pyridin-2-yl)-4H-1,2,4-triazole-3-carboxamide] displayed a 50% inhibitory concentration (IC50) of at most 100 nM.
Consider `Cc1ccc(OCC2CCOCC2)cc1-c1ccnc(NC(=O)c2nnc(CC3CCCC3)[nH]2)c1` [Example 79, 5-(cyclopentylmethyl)-N-(4-(2-methyl-5-((tetrahydro-2H-pyran-4-yl)methoxy)phenyl)pyridin-2-yl)-4H-1,2,4-triazole-3-carboxamide], for which the IC50 was at most 100 nM.
For `Cc1ccc(OCC2CCOCC2)cc1-c1ccnc(NC(=O)c2nnc(CC3CCCCC3)[nH]2)c1` [Example 80, 5-(cyclohexylmethyl)-N-(4-(2-methyl-5-((tetrahydro-2H-pyran-4-yl)methoxy)phenyl)pyridin-2-yl)-4H-1,2,4-triazole-3-carboxamide] the value was at most 100 nM; for `Cc1ccc(OCCCOC2CCC2)cc1-c1ccnc(NC(=O)c2nnc(Cc3ccccc3)[nH]2)c1` [Example 81, 5-benzyl-N-(4-(5-(3-cyclobutoxypropoxy)-2-methylphenyl)pyridin-2-yl)-4H-1,2,4-triazole-3-carboxamide], at most 100 nM.
Compound `C=CCOc1ccc(C)c(-c2ccnc(NC(=O)c3nnc(Cc4ccccc4)[nH]3)c2)c1` [Example 82, N-(4-(5-(allyloxy)-2-methylphenyl)pyridin-2-yl)-5-benzyl-4H-1,2,4-triazole-3-carboxamide] had a 50% inhibitory concentration (IC50) of 100 to 1000 nM.
In turn, `Cc1ccc(OCCCOC(C)C)cc1-c1ccnc(NC(=O)c2nnc(Cc3ccccc3)[nH]2)c1` [Example 83, 5-benzyl-N-(4-(5-(3-isopropoxypropoxy)-2-methylphenyl)pyridin-2-yl)-4H-1,2,4-triazole-3-carboxamide] showed an IC50 of at most 100 nM.
For `Cc1ccc(OCCCN2CCCCC2=O)cc1-c1ccnc(NC(=O)c2nnc(Cc3ccccc3)[nH]2)c1` [Example 84] the value was at most 100 nM; for `COCCOCCOc1ccc(C)c(-c2ccnc(NC(=O)c3nnc(Cc4ccccc4)[nH]3)c2)c1` [Example 85, 5-benzyl-N-(4-(5-(2-(2-methoxyethoxy)ethoxy)-2-methylphenyl)pyridin-2-yl)-4H-1,2,4-triazole-3-carboxamide], at most 100 nM; for `Cc1ccc(OC2COC2)cc1-c1ccnc(NC(=O)c2nnc(Cc3ccccc3)[nH]2)c1` [Example 86, 5-benzyl-N-(4-(2-methyl-5-(oxetan-3-yloxy)phenyl)pyridin-2-yl)-4H-1,2,4-triazole-3-carboxamide], at most 100 nM.
For `Cc1ccc(OCCC2CCOCC2)cc1-c1ccnc(NC(=O)c2nnc(Cc3ccccc3)[nH]2)c1` [Example 87, 5-benzyl-N-(4-(2-methyl-5-(2-(tetrahydro-2H-pyran-4-yl)ethoxy)phenyl)pyridin-2-yl)-4H-1,2,4-triazole-3-carboxamide] the value was at most 100 nM.
As to `Cc1ccc(OCCC2CCOCC2)cc1-c1ccnc(NC(=O)c2nnc(CC3CCCC3)[nH]2)c1` [Example 88, 5-(cyclopentylmethyl)-N-(4-(2-methyl-5-(2-(tetrahydro-2H-pyran-4-yl)ethoxy)phenyl)pyridin-2-yl)-4H-1,2,4-triazole-3-carboxamide], the IC50 is at most 100 nM.
Take `Cc1ccc(OCCC2CCOCC2)cc1-c1ccnc(NC(=O)c2nnc(CC3CCCCC3)[nH]2)c1` [Example 89, 5-(cyclohexylmethyl)-N-(4-(2-methyl-5-(2-(tetrahydro-2H-pyran-4-yl)ethoxy)phenyl)pyridin-2-yl)-4H-1,2,4-triazole-3-carboxamide]: the IC50 was at most 100 nM.
`Cc1ccc(OCCCC(C)C#N)cc1-c1ccnc(NC(=O)c2nnc(Cc3ccccc3)[nH]2)c1` (stereo not shown) [Example 90, 5-benzyl-N-(4-(5-((4-cyanopentyl)oxy)-2-methylphenyl)pyridin-2-yl)-4H-1,2,4-triazole-3-carboxamide] yielded an IC50 of at most 100 nM.
For the compound `Cc1ccc(OCCCCC#N)cc1-c1ccnc(NC(=O)c2nnc(Cc3ccccc3)[nH]2)c1` [Example 91, 5-benzyl-N-(4-(5-(4-cyanobutoxy)-2-methylphenyl)pyridin-2-yl)-4H-1,2,4-triazole-3-carboxamide], the IC50 was at most 100 nM.
`COc1cccc(C)c1-c1ccnc(NC(=O)c2nnc(Cc3ccccc3)[nH]2)c1` [Example 92, 5-benzyl-N-(4-(2-methoxy-6-methylphenyl)pyridin-2-yl)-4H-1,2,4-triazole-3-carboxamide] returned an IC50 of 100 to 1000 nM.
Regarding `CCOc1cccc(C)c1-c1ccnc(NC(=O)c2nnc(Cc3ccccc3)[nH]2)c1` [Example 93, 5-benzyl-N-(4-(2-ethoxy-6-methylphenyl)pyridin-2-yl)-4H-1,2,4-triazole-3-carboxamide], the IC50 was 1000 to 10000 nM.
Regarding `COCCOc1cccc(C)c1-c1ccnc(NC(=O)c2nnc(Cc3ccccc3)[nH]2)c1` [Example 94, 5-benzyl-N-(4-(2-(2-methoxyethoxy)-6-methylphenyl)pyridin-2-yl)-4H-1,2,4-triazole-3-carboxamide], the 50% inhibitory concentration (IC50) fell in the range of 1000 to 10000 nM.
For `Cc1c(OCCO)cccc1-c1ccnc(NC(=O)c2nnc(Cc3ccccc3)[nH]2)c1` [Example 95, 5-benzyl-N-(4-(3-(2-hydroxyethoxy)-2-methylphenyl)pyridin-2-yl)-4H-1,2,4-triazole-3-carboxamide] the value was 100 to 1000 nM; for `COCCOc1cccc(-c2ccnc(NC(=O)c3nnc(Cc4ccccc4)[nH]3)c2)c1C` [Example 96, 5-benzyl-N-(4-(3-(2-methoxyethoxy)-2-methylphenyl)pyridin-2-yl)-4H-1,2,4-triazole-3-carboxamide], 100 to 1000 nM.
`Cc1c(OCCCO)cccc1-c1ccnc(NC(=O)c2nnc(Cc3ccccc3)[nH]2)c1` [Example 97, 5-benzyl-N-(4-(3-(3-hydroxylpropoxy)-2-methylphenyl)pyridin-2-yl)-4H-1,2,4-triazole-3-carboxamide] gave an IC50 of 100 to 1000 nM.
With `COCCCOc1cccc(-c2ccnc(NC(=O)c3nnc(Cc4ccccc4)[nH]3)c2)c1C` [Example 98, 5-benzyl-N-(4-(3-(3-methoxypropoxy)-2-methylphenyl)pyridin-2-yl)-4H-1,2,4-triazole-3-carboxamide], the IC50 was 100 to 1000 nM.
`Cc1c(OCCCCO)cccc1-c1ccnc(NC(=O)c2nnc(Cc3ccccc3)[nH]2)c1` [Example 99, 5-benzyl-N-(4-(3-(4-hydroxybutoxy)-2-methylphenyl)pyridin-2-yl)-4H-1,2,4-triazole-3-carboxamide]: the IC50 fell in the range of 100 to 1000 nM.
As to `CCCCCCCCOc1ccc(C)c(-c2ccnc(NC(=O)c3nnc(Cc4ccccc4)[nH]3)c2)c1` [Example 100, 5-benzyl-N-(4-(2-methyl-5-(octyloxy)phenyl)pyridin-2-yl)-4H-1,2,4-triazole-3-carboxamide], the IC50 is 100 to 1000 nM.
As to `COc1ccc(C)c(-c2ccnc(NC(=O)c3nnc(Cc4ccccc4)[nH]3)c2)c1` [Example 101, 5-benzyl-N-(4-(5-methoxy-2-methylphenyl)pyridin-2-yl)-4H-1,2,4-triazole-3-carboxamide], the IC50 is 100 to 1000 nM.
In turn, `COc1ccc(C)c(-c2ccnc(NC(=O)c3nnc(CC4CCCC4)[nH]3)c2)c1` [Example 102, 5-(cyclopentylmethyl)-N-(4-(5-methoxy-2-methylphenyl)pyridin-2-yl)-4H-1,2,4-triazole-3-carboxamide] showed an IC50 of 100 to 1000 nM.
Regarding `COc1ccc(C)c(-c2ccnc(NC(=O)c3nnc(CC4CCCCC4)[nH]3)c2)c1` [Example 103, 5-(cyclohexylmethyl)-N-(4-(5-methoxy-2-methylphenyl)pyridin-2-yl)-4H-1,2,4-triazole-3-carboxamide], the IC50 is 100 to 1000 nM.
As for `CCc1ccc(OC)c(-c2ccnc(NC(=O)c3nnc(Cc4ccccc4)[nH]3)c2)c1` [Example 104, 5-benzyl-N-(4-(5-ethyl-2-methoxyphenyl)pyridin-2-yl)-4H-1,2,4-triazole-3-carboxamide], the concentration for half-maximal inhibition (IC50) fell in the range of 1000 to 10000 nM.
Compound `CCOc1ccc(Cl)c(-c2cncc(NC(=O)c3nnc(Cc4ccccc4)[nH]3)c2)c1` [Example 105, 5-benzyl-N-(5-(2-chloro-5-ethoxyphenyl)pyridin-3-yl)-4H-1,2,4-triazole-3-carboxamide] returned an IC50 above 10000 nM.
Turning to `CCOc1ccc(Cl)c(-c2ccnc(NC(=O)c3nnc(Cc4ccccc4)[nH]3)c2)c1` [Example 106, 5-benzyl-N-(4-(2-chloro-5-ethoxyphenyl)pyridin-2-yl)-4H-1,2,4-triazole-3-carboxamide], the IC50 lay within 1000 to 10000 nM.
Consider `CCOc1ccc(OC)c(-c2ccnc(NC(=O)c3nnc(Cc4ccccc4)[nH]3)c2)c1` [Example 107, 5-benzyl-N-(4-(5-ethoxy-2-methoxyphenyl)pyridin-2-yl)-4H-1,2,4-triazole-3-carboxamide], for which the IC50 is 1000 to 10000 nM.
The value for `CCOc1ccc(C)c(-c2ccnc(NC(=O)c3nnc(Cc4ccccc4)[nH]3)c2)c1` [Example 108, 5-benzyl-N-(4-(5-ethoxy-2-methylphenyl)pyridin-2-yl)-4H-1,2,4-triazole-3-carboxamide] was 1000 to 10000 nM; that for `CCn1nc(C)cc1-c1ccnc(NC(=O)c2nnc(Cc3ccccc3)[nH]2)c1` [Example 109, 5-benzyl-N-(4-(1-ethyl-3-methyl-1H-pyrazol-5-yl)pyridin-2-yl)-4H-1,2,4-triazole-3-carboxamide] was 1000 to 10000 nM.
The value for `CC(C)Oc1ccc(Cl)c(-c2cncc(NC(=O)c3nnc(Cc4ccccc4)[nH]3)c2)c1` [Example 110, 5-benzyl-N-(5-(2-chloro-5-isopropoxyphenyl)pyridin-3-yl)-4H-1,2,4-triazole-3-carboxamide] was above 10000 nM.

Values taken from patent publication US12435060B2, “Acylamino bridged heterocyclic compound, and composition and application thereof” (BEIJING SCITECH-MQ PHARMACEUTICALS LIMITED, priority 2019, dated 2025).
